Here are results for six compounds from patent publication EP0252028A1 (priority 1986, dated 1988).

The structures appear in SMILES notation.

One data set has as its system Candida parapsilosis. Briefly: agar diffusion test, growth inhibition zones. It counts as cell-based. (In agar diffusion tests the substance spreads into inoculated agar from a disc or well.)
The next data set concerns Candida albicans 2. Briefly: agar diffusion test, growth inhibition zones. The data set is classed as cell-based.
Data set [1] concerns Staphylococcus epidermis ATCC 14990. Briefly: agar diffusion test, growth inhibition zones. It counts as cell-based.
The subject of the next data set is Cryptococcus albidus. Put plainly: agar diffusion test, growth inhibition zones. The data set is classed as cell-based.
The next data set concerns Candida albicans 1. Put plainly: agar diffusion test, growth inhibition zones. It counts as cell-based.
The next data set relates to Candida albicans PCA6. Briefly: agar diffusion test, growth inhibition zones. It counts as cell-based.
Data set [2] relates to Mycobacterium aurum NCTC 10437. Briefly: agar diffusion test, growth inhibition zones.
Method: The antitubercular activity was evaluated in in vitro tests against Mycobacterium aurum.
For data set [3], the system named is Staphylococcus aureus ATCC 9144. Briefly: agar diffusion test, growth inhibition zones. It counts as cell-based.
The test system of a further data set is Aspergillus fumigatus. Put plainly: agar diffusion test, growth inhibition zones. The data set is classed as cell-based.
In data set [4] the test system is Enterobacter aerogenes ATCC 13047. Put plainly: agar diffusion test, growth inhibition zones. It counts as cell-based.
The test system of data set [5] is Streptococcus faecalis ATCC 8043. Briefly: agar diffusion test, growth inhibition zones. The data set is classed as cell-based.
The test system of data set [6] is Salmonella tiphymurium ATCC 13311. Put plainly: agar diffusion test, growth inhibition zones. The data set is classed as cell-based.
In data set [7] the test system is Bacillus subtilis ATCC 6051. Put plainly: agar diffusion test, growth inhibition zones. The data set is classed as cell-based.
A further data set relates to Sarcina lutea ATCC 9341. Briefly: agar diffusion test, growth inhibition zones. It counts as cell-based.
Data set [8] relates to Escherichia coli ATCC 10538. Briefly: agar diffusion test, growth inhibition zones. The data set is classed as cell-based.
Data set [9] in a line: acute toxicity (LD50) in mice. The settings on record: mouse, in vivo, iv; CD1 mice. An excerpt: The nitrofurylbenzimidazoles (I) prepared via the process of the present invention are suitable for being compounded into topically administrable ointments and creams. […] Examples of typical formulations (suited for both topical application and systemic administration) are illustrated in the above-mentioned UK patents 1,072;735 and 1,094,903.

In a further data set the test system is Rodutorula rubra. Put plainly: agar diffusion test, growth inhibition zones. It counts as cell-based.
Another data set deals with Aspergillus Flavus. Put plainly: agar diffusion test, growth inhibition zones. It counts as cell-based.
The next data set deals with Cryptococcus neoformans. Briefly: agar diffusion test, growth inhibition zones. The data set is classed as cell-based.
The test system of a further data set is Torulopsis Candida. Put plainly: agar diffusion test, growth inhibition zones. The data set is classed as cell-based.
The next data set relates to Aspergillus Niger. Briefly: agar diffusion test, growth inhibition zones. It counts as cell-based.
For the next data set, the system named is Candida tropicalis. Briefly: agar diffusion test, growth inhibition zones. The data set is classed as cell-based.

Turning to `O=[N+]([O-])c1ccc(-c2nc3ccccc3[nH]2)o1` [Es. 1, 2-(5'-nitro-2'-furyl)-benzimidazole], the Growth inhibition zones in the data set with Candida parapsilosis worked out at 37 mm; in the data set with Candida albicans 2, 42 mm; in [1], 35 mm; in the data set with Cryptococcus albidus, 33 mm; with Candida albicans 1, 25 mm; with Candida albicans PCA6, 40 mm. Besides, the Growth inhibition zones came to 24 mm in [2]; 35 mm in [3]; 22 mm in the data set on Aspergillus fumigatus; 18 mm in data set [4]; 24 mm in [5]; 20 mm in data set [6]. In addition, the Growth inhibition zones is listed as 36 mm in [7], 15 mm in the data set on Sarcina lutea ATCC 9341 and 22 mm in [8].

Take `O=[N+]([O-])c1ccc(-c2nc3cc(C(F)(F)F)ccc3[nH]2)o1` [Es. 5, 5-trifluoromethyl-2-(5'-nitro-2'-furyl)-benzimidazole]: the Growth inhibition zones was 20 mm with Candida parapsilosis; 22 mm in the data set with Candida albicans 2; 30 mm in data set [1]; 23 mm with Candida albicans PCA6; 22 mm in data set [2]; 30 mm in data set [3]. Moreover, the Growth inhibition zones in data set [5] came out at 21 mm; in data set [6], 13 mm; in data set [7], 26 mm; with Sarcina lutea ATCC 9341 it was 14 mm; in [8], 11 mm.

Consider `O=[N+]([O-])c1ccc(-c2nc3cc(Cl)ccc3[nH]2)o1` [Es. 6, 5-chloro-2-(5'-nitro-2'-furyl)-benzimidazole], for which the Growth inhibition zones was 21 mm with Candida parapsilosis; 22 mm in the data set with Candida albicans 2; 30 mm in data set [1]; 15 mm with Candida albicans 1; 22 mm in the data set on Candida albicans PCA6; 13 mm in data set [2]. The Growth inhibition zones in data set [3] is reported as 28 mm; in data set [4] it was 12 mm; in data set [5] it was 22 mm; in data set [6], 14 mm; in data set [7], 23 mm; in data set [8], 15 mm.

`O=[N+]([O-])c1ccc2[nH]c(-c3ccc([N+](=O)[O-])o3)nc2c1` [Es. 4, 5-nitro-2-(5'-nitro-2'-furyl)-benzimidazole]: the Growth inhibition zones in [1] is 32 mm; in [2], 15 mm; in data set [3], 30 mm; in data set [4], 14 mm; in [5], 20 mm; in data set [6], 15 mm. For the same compound, the Growth inhibition zones in [7] stood at 30 mm; in the data set with Sarcina lutea ATCC 9341, 12 mm; in data set [8], 15 mm.

Regarding `Cc1ccc2[nH]c(-c3ccc([N+](=O)[O-])o3)nc2c1` [Es. 2, 5-methyl-2-(5'-nitro-2'-furyl)-benzimidazole], the Growth inhibition zones with Candida parapsilosis is reported as 29 mm; in the data set with Candida albicans 2, 33 mm; in data set [1] it was 32 mm; with Cryptococcus albidus, 25 mm; in the data set with Candida albicans 1 it was 18 mm; in the data set on Candida albicans PCA6, 32 mm. Also, the Growth inhibition zones in data set [2] is 13 mm; in data set [3], 30 mm; with Aspergillus fumigatus, 13 mm; in data set [4], 16 mm; in [5], 23 mm; in [6], 12 mm. The Growth inhibition zones in data set [7] was 30 mm; in the data set on Sarcina lutea ATCC 9341, 12 mm; in [8] it was 13 mm.

In the case of `O=[N+]([O-])c1ccc(-c2nc3cc(F)ccc3[nH]2)o1` [Es. 3, 5-fluoro-2-(5'-nitro-2'-furyl)-benzimidazole], the LD50 – broadly, the dose expected to kill half of the subjects tested – in data set [9] came to 240 mg/kg. For the same compound, the Growth inhibition zones was 34 mm in the data set on Candida parapsilosis; 34 mm in the data set on Candida albicans 2; 29 mm in [1]; 35 mm with Cryptococcus albidus; 34 mm in the data set on Candida albicans 1; 35 mm with Rodutorula rubra. Moreover, the Growth inhibition zones with Candida albicans PCA6 worked out at 34 mm; with Aspergillus Flavus, 30 mm; in data set [2], 35 mm; with Cryptococcus neoformans it was 45 mm; in data set [3], 28 mm; in the data set with Aspergillus fumigatus, 30 mm. Also, the Growth inhibition zones in data set [5] is listed as 33 mm; in [6], 23 mm; in data set [7] it was 27 mm; in the data set on Sarcina lutea ATCC 9341 it was 27 mm; in [8], 21 mm; in the data set on Torulopsis Candida it was 42 mm. Besides, the Growth inhibition zones with Aspergillus Niger stood at 38 mm; in the data set with Candida tropicalis it was 25 mm.
